Laboratory results taken from ChEMBL document CHEMBL1133142, “Synthesis of dolichyl phosphate derivatives with fluorescent label at the omega-end of the chain, new tools to study protein glycosylation” (Bioorg Med Chem Lett, 2000).

Experiments:
Saccharomyces cerevisiae [1] = assay: Tested for the kinetic parameter relative Kcat on Dolichyl phosphate mannose synthase
Saccharomyces cerevisiae [2] = assay: Tested for the kinetic constant (Km) against the enzyme Dolichyl phosphate mannose synthase

A k cat (Saccharomyces cerevisiae [1]) of 1.27 and a Km (Saccharomyces cerevisiae [2]) of 11.7 µM were found for `C/C(=C\CC/C(C)=C/CC/C(C)=C/CC/C(C)=C/CC/C(C)=C/CC/C(C)=C/CC/C(C)=C/CCC(C)CCOP(=O)(O)O)CC/C=C(\C)CC/C=C(\C)CC/C=C(\C)CC/C=C(\C)CC/C=C(\C)CC/C=C(\C)CC/C=C(\C)CCCNc1cccc2ccccc12` (configuration not stated) in this work.
